Results published in patent publication US8148431B2, “Osteogenesis promoter containing β-cryptoxanthin as the active ingredient” (Kemin Health, L.C., priority 2002, dated 2012).
Marks after values point to notes of the source that are not given here.

Assays:
[1] = system: metaphysis tissue of the femur (cancellous bone); assay: Bone calcium level in cultured femoral metaphysis tissue pieces; format: cell-based, Wistar male rats; settings: for Bone calcium level: metaphysis tissue, mean ± SE
Description: (§1) The femurs were extracted from rats (Wistar male rats; 4 to 5 weeks old) (purchased from Japan SLC Co., Ltd. and fed with solid Oriental yeast (MF)) under anesthesia with ether under a germfree condition. The femurs were each washed with 0.25 M sucrose solution, and then divided into the diaphysis (cortical bone) and metaphysis (cancellous bone). The bone tissue pieces were cultured in a culture medium (Dulbecco's modified culture medium containing 5% of glucose; serum-free medium) containing. β-cryptoxanthin, etc. at […] in an incubator filled with 5% CO2-95% air for 48 hours. β-cryptoxanthin used was “β-cryptoxanthin” of Extrasynthase Co., cycloheximide used was “Cycloheximide” of Sigma Co. Ltd., β-carotene was “β-carotene” of Sigma ? , xanthine was “Xanthine” of Sigma Co, Ltd., parathormone was “Parathormone” of Sigma Co. Ltd. and prostaglandin E2 was “Prostaglandin E2” of Sigma Co. Ltd. In the control, only the culture medium was used without β-cryptoxanthin or the like.
(§2) Bone calcium level in the bone tissue was determined. After the culture in the incubator, the tissue pieces were washed with 0.25 M sucrose solution and dried and then the bone was weighed. Then concentrated nitric acid was added to the tissue pieces. After the incineration at 120° C. for 12 hours, the bone calcium level was determined with an atomic absorption photometer (“Perkin-Elmer 303” of Perkin-Elmer Co.).
The bone component-increasing effect of β-cryptoxanthin was examined. […] Calcium level in the bone tissue, alkaline phosphatase activity (enzyme for accelerating the bone calcification) and the amount of deoxyribonucleic acid (DNA; index of number of cells in the bone tissue) were determined by the same methods as in Example 1. In each test group, the determination vas conducted 6 to 8 times and the results were represented by the average value and the standard error. The significant difference was determined by Student's t-test. The result was compared with that of the control. When P value was not higher than 0.01 (**) or not higher than 0.05 (*), the results were statistically significant.

[2] = system: diaphysis tissue of the femur (cortical bone); assay: Bone DNA level in cultured femoral diaphysis tissue pieces; format: cell-based, Wistar male rats; settings: for Bone DNA level: diaphysis tissue, mean ± SE
Description: as §1
DNA level was determined as an index of the number of cells in the bone tissue. After the culture in an incubator, the tissue pieces were washed with 0.25 M sucrose solution and then the wet weight of them was determined. They were pulverized in 4 ml of 0.1 N NaOH. After the osmosis at 4° C. for 24 hours, the liquid mixture was centrifuged. The supernatant was taken as the sample and determined by a method of Ceriotti et al. (J. Biol. Chem., 241; 34-77, 1951). Namely, 1 ml of concentrated hydrochloric acid and 1 ml of 0.04% indole solution were added to 2 ml of the sample and then the resultant mixture was heated to 100° C. in boiling water. After quenching followed by the extraction with 4 ml of chloroform, the chloroform layer was taken to determine bone DNA level with a spectrophotometer (490 nm).
The bone component-increasing effect of β-cryptoxanthin was examined. The diaphysis and metaphysis tissue of the femur was cultured in the above-described culture medium containing β-cryptoxanthin ([…]) for 48 hours. Calcium level in the bone tissue, alkaline phosphatase activity (enzyme for accelerating the bone calcification) and the amount of deoxyribonucleic acid (DNA; index of number of cells in the bone tissue) were determined by the same methods as in Example 1. In each test group, the determination vas conducted 6 to 8 times and the results were represented by the average value and the standard error. The significant difference was determined by Student's t-test. The result was compared with that of the control. When P value was not higher than 0.01 (**) or not higher than 0.05 (*), the results were statistically significant.

[3] = system: metaphysis tissue of the femur; assay: Bone resorption (PTH or prostaglandin E2): bone calcium level in cultured metaphysis tissue; format: cell-based, Wistar male rats
Description: as §1, §2
The bone mineral dissolution-inhibiting effect of β-cryptoxanthin was examined. […] PTH also has a pathophysiologic role on the expression of osteoporosis caused by the aging. It is known that prostaglandin E2 also causes physiologic bone mineral dissolution. The diaphysis or metaphysis tissue of the femur was cultured in the presence of 10^−7 M PTH or 10^−5 M prostaglandin E2 for 48 hours and then calcium level in the bone tissue was determined. In another experiment, the culture was conducted in the same manner as that described above in the coexistence of them and β-cryptoxanthin (10^−8 M to 10^−6 M) and then calcium level in the bone tissue was determined. In each test group, the determination was conducted 6 to 8 times and the results were represented by the average value and the standard error. The significant difference was determined by Student's t-test. The result was compared with that of the control. When P value was not higher than 0.01 (*) as compared with the control or it is not higher than 0.1 (#) as compared with that of prostaglandin E2, the results were statistically significant.

[4] = system: rats, femoral metaphysis tissue; assay: Oral administration to rats: bone calcium level in metaphysis tissue; format: in vivo, Wistar male rats; settings: for Bone calcium level: metaphysis tissue
Description: as §2
A solution of β-cryptoxanthin in corn oil having one of three kinds of concentration (10, 25 and 50 μg/ml corn oil) was orally administered to rats (Wistar male rats; 4 to 5 weeks old) in an amount/100 g body weight with a probe once a day for 7 days. The rats were sacrificed 24 hours after the final administration. The femurs were excised. The muscles, etc. were taken out and each femur was divided into diaphysis and metaphysis to determine the bone components.
Tests were conducted to examine whether the bone components are increased by the oral administration of β-cryptoxanthin to rats or not. β-cryptoxanthin was administered for 7 days (10, 25 or 50 μg/100 g body weight/day) and then calcium level in the bone tissue, determination of alkaline phosphatase activity (enzyme for the acceleration of the calcification of bones) and the amount of deoxyribonucleic acid (DNA: index of the number of the cells in the bone tissue) were determined by the same methods as those in Example 1. In each test group, the determination was conducted 6 times and the results were represented by the average value and the standard error. The significant difference was determined by Student's t-test. The result was compared with that of the control. When P value was not higher than 0.01 (*) as compared with the control, the results were statistically significant.

[5] = Table 2 (protein synthesis inhibitor experiment), 10^−6 M (each agent), n=6
[6] = β-cryptoxanthin 10^−6 M with cycloheximide

## CC1=C(/C=C/C(C)=C/C=C/C(C)=C/C=C/C=C(C)/C=C/C=C(C)/C=C/C2=C(C)C[C@@H](O)CC2(C)C)C(C)(C)CCC1 [β-cryptoxanthin]
[1]; 10^−8 to 10^−5 M, 48 h culture, vs control
  Effect on calcium level in the metaphysis tissue (in words): significant increase
[1]; [5]
  Bone calcium level: 220.0 ± 3.25* mg/g dry weight
[1]; 10^−5 M, 48 h culture
  Bone calcium level: 213.5 ± 5.59** mg/g dry weight
[1]; 10^−6 M, 48 h culture
  Bone calcium level: 216.8 ± 2.84** mg/g dry weight
[1]; 10^−7 M, 48 h culture
  Bone calcium level: 223.6 ± 9.27** mg/g dry weight
[1]; 10^−8 M, 48 h culture
  Bone calcium level: 204.7 ± 6.40** mg/g dry weight
[1]; [6]
  Calcium level in metaphysis tissue increased by β-cryptoxanthin: change in the presence of cycloheximide (in words): significantly lowered
[2]; 10^−7 to 10^−5 M, 48 h culture, vs control
  Effect on DNA level in the diaphysis tissue (in words): significantly increased
[2]; [5]
  Bone DNA level: 1.800 ± 0.025* mg/g bone wet weight
[2]; 10^−5 M, 48 h culture
  Bone DNA level: 1.802 ± 0.063** mg/g bone wet weight
[2]; 10^−6 M, 48 h culture
  Bone DNA level: 1.746 ± 0.016* mg/g bone wet weight
[2]; 10^−7 M, 48 h culture
  Bone DNA level: 1.788 ± 0.049* mg/g bone wet weight
[2]; 10^−8 M, 48 h culture
  Bone DNA level: 1.741 ± 0.099 mg/g bone wet weight
[2]; [6]
  Bone DNA level in diaphysis tissue increased by β-cryptoxanthin: change in the presence of cycloheximide (in words): significantly lowered
[3]; metaphysis tissue, β-cryptoxanthin 10^−5 to 10^−6 M (so in the source) with prostaglandin E2 10^−5 M
  Control of prostaglandin E2-caused reduction of calcium level in the bone tissue (in words): completely controlled
[3]; β-cryptoxanthin 10^−8 to 10^−6 M in the presence of PTH
  Control of PTH-caused reduction of calcium level in the metaphysis tissue (in words): significantly controlled
[4]; 10, 25 or 50 μg/100 g body weight/day, 7 days
  Effect on calcium level in the metaphysis tissue after oral administration (in words): significantly increased
[4]; oral 10 μg/100 g body weight/day for 7 days
  Bone calcium level: 201.5 ± 5.60* mg/g dry weight
[4]; oral 25 μg/100 g body weight/day for 7 days
  Bone calcium level: 200.3 ± 3.90* mg/g dry weight
[4]; oral 50 μg/100 g body weight/day for 7 days
  Bone calcium level: 205.9 ± 4.10* mg/g dry weight
